“And” between values parts separate entries of the source, which are not always exact repeats. Identical values can stand only once.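 Five compound concentrations were applied to cells in 96-well plates for 48 hours; endpoints were derived by simple linear interpolation of the resulting dose-response curve. GI50 marks 50% less growth. The concentration for full growth arrest is given as TGI.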
Key:
Experiment in all cases: NCI anticancer screen, dose series, 48 h
HL-60(TB) leukemia = system: HL-60(TB) leukemia
SK-MEL-28 melanoma = system: SK-MEL-28 melanoma
A498 renal = system: A498 renal
SNB-75 CNS = system: SNB-75 CNS
RXF 393 renal = system: RXF 393 renal
786-0 renal = system: 786-0 renal
HT29 colon = system: HT29 colon
TK-10 renal = system: TK-10 renal
NCI-H226 lung = system: NCI-H226 lung
NCI-H460 lung = system: NCI-H460 lung

Structure (SMILES)	GI50 (HL-60(TB) leukemia)	TGI (HL-60(TB) leukemia)	GI50 (SK-MEL-28 melanoma)	TGI (SK-MEL-28 melanoma)	GI50 (A498 renal)	TGI (A498 renal)	GI50 (SNB-75 CNS)	TGI (SNB-75 CNS)	GI50 (RXF 393 renal)	TGI (RXF 393 renal)	GI50 (786-0 renal)	TGI (786-0 renal)	GI50 (HT29 colon)	TGI (HT29 colon)	GI50 (TK-10 renal)	TGI (TK-10 renal)	GI50 (NCI-H226 lung)	TGI (NCI-H226 lung)	GI50 (NCI-H460 lung)	TGI (NCI-H460 lung)
CCN(CC)CC(O)CNc1c2ccc([N+](=O)[O-])cc2nc2cc(OC)c(OC)cc12 (stereo not drawn)	2.06 µM	6.81 µM	0.47 µM	1.93 µM	1.36 µM	3.08 µM	0.488 µM	1.88 µM	0.469 µM	1.86 µM	0.659 µM	3.88 µM	0.258 µM	1.2 µM	1.94 µM	9.79 µM	0.392 µM	2.01 µM	0.185 µM	0.669 µM
O=C(Nc1ccncc1)C(=O)c1cn(S(=O)(=O)c2ccc(Cl)cc2)c2ccccc12	0.401 µM		1.06 µM	> 50.4 µM	8.83 µM	> 74.9 µM	1.23 µM	10.9 µM	3.71 µM	35.7 µM	3.5 µM	45.2 µM	0.397 µM	> 32.4 µM	11.5 µM	38.4 µM	9.4 µM	> 100 µM	11.5 µM	> 100 µM
COc1cc(N(C)C)c(OC)cc1/C=C\c1ccnc2ccccc12		7.99 µM		> 10 µM		9.92 µM		9.62 µM		> 10 µM		> 10 µM		> 10 µM		> 10 µM		> 10 µM		> 10 µM
O=C(NCCCO)c1cc(Cl)ccc1O	2.22 µM	6.35 µM	4.45 µM	17.3 µM	4.43 µM	12.7 µM	2.44 µM	15.1 µM	3.94 µM	12.9 µM	3.14 µM	11.8 µM	2.16 µM	10.8 µM	4.26 µM	15.1 µM	3.27 µM	13.4 µM	2.78 µM	11.1 µM
O=c1c(Br)cc2nc3ccccc3sc-2c1Br		38.9 µM		> 100 µM		> 100 µM		> 100 µM		> 100 µM		30.8 µM		> 100 µM		> 100 µM		> 100 µM		> 100 µM
CC(=O)OC[C@@H](COC(=O)/C=C/c1ccc(O)cc1)OC1OC(CO)C(O)C(O)C1O (stereo partly drawn)		> 100 µM		> 100 µM		> 100 µM		> 100 µM		> 100 µM		> 100 µM		> 100 µM		> 100 µM		> 100 µM		> 100 µM
C=CC(=O)Nc1cc(C)ccc1Nc1nc(Nc2cc(OC)ncc2C)ncc1C(F)(F)F	0.637 µM	3.7 µM	0.0883 µM	1.08 µM	0.157 µM	0.598 µM	0.285 µM	1.45 µM	0.352 µM	1.85 µM	0.692 µM	> 100 µM	0.122 µM		0.416 µM	> 100 µM	0.901 µM	4.39 µM	2.13 µM	11.4 µM
CC12CCC3(OCCO3)C(OC(=O)c3ccccc3)=C1CCC21OCCO1 (stereo not drawn)		> 100 µM		> 100 µM		> 100 µM		> 100 µM		> 100 µM		> 100 µM		> 100 µM		> 100 µM		> 100 µM		> 100 µM
C=C1CCC2C3(C)COC(c4ccccc4)OC3CCC2(C)C1/C=C/C1=CCOC1=O (stereo not drawn)	1.27 µM	3.91 µM	9.15 µM	26.6 µM	17.9 µM	46 µM	2.64 µM	10.1 µM	2.93 µM	8.65 µM	13 µM	30 µM	3.23 µM	10.7 µM	12.3 µM	34 µM	3.81 µM	13.5 µM	9.29 µM	35.9 µM
CC(C)=CCC/C(C)=C/CC/C(C)=C/CSc1ccccc1C(=O)O	18.6 µM	41.4 µM and 67.1 µM	25.7 µM	62 µM and 54.3 µM	21.3 µM	54.6 µM and 56.7 µM	> 66.4 µM	> 100 µM and 42.1 µM	22.2 µM	52.3 µM and 56 µM	23.1 µM	78.9 µM and 32.1 µM	33.5 µM	> 78.5 µM and 38.1 µM	36.4 µM	> 92.3 µM and 99.1 µM	19.9 µM	46.2 µM and 44.1 µM	20.9 µM	42 µM and 33.1 µM
C#Cc1c(/C=C/C(=O)OCC)ccc2ccccc12	10.6 µM	26.1 µM	13.7 µM	39.7 µM	15.2 µM	37.8 µM	10.1 µM	40.4 µM	22.6 µM	69.7 µM	27.5 µM	74 µM	6.61 µM	26 µM	30.4 µM	79.1 µM	19.9 µM	82.9 µM	78.2 µM	> 100 µM
